Data taken from patent US20240182420A1, “MICROBIOCIDAL ISONICOTINIC AMIDE DERIVATIVES” (SYNGENTA CROP PROTECTION AG, priority 2021, published 2024).

Legend:
[1] = tested on: Glomerella lagenarium syn Colletotrichum lagenarium; test: Glomerella lagenarium syn. Colletotrichum lagenarium (anthracnose), liquid culture growth inhibition; type: cell-based; conditions: Colletotrichum orbiculare, PDB nutrient broth, 24° C., 72 hrs, 620 nm, vs untreated control
Protocol: (§1) Conidia of the fungus from cryogenic storage were directly mixed into nutrient broth (PDB potato dextrose broth). A DMSO solution of the test compounds was placed into a microtiter plate (96-well format) and the nutrient broth containing the fungal spores was added to it. The test plates were incubated at 24° C. and the inhibition of growth was determined photometrically after 72 hrs at 620 nm.

[2] = tested on: Botryotinia fuckeliana syn. Botrytis cinerea; test: Botryotinia fuckeliana syn. Botrytis cinerea (gray mould), liquid culture growth inhibition; type: cell-based; conditions: PDB nutrient broth, 24° C., 72 hrs, photometric, vs untreated control
Protocol: as §1, with “hrs.” for “hrs at 620 nm.”

| Structure (SMILES) | inhibition of growth at 20 ppm [1] | inhibition of growth at 20 ppm [2] |
| --- | --- | --- |
| Cc1nccc(C(=O)NCC(F)c2ccc(Cl)cc2Cl)c1Oc1cccc(C2CC2)c1 (stereo not drawn) [Compound 1.12, 3-(3-cyclopropyl-phenoxy)-N-[2-(2,4-dichlorophenyl)-2-fluoro-ethyl]-2-methyl-pyridine-4-carboxamide] | ≥ 80% |  |
| Cc1cc(C(=O)NCC(F)c2ccc(Cl)cc2Cl)c(Oc2cccc(C3CC3)c2)c(Cl)n1 (stereo not drawn) [Compound 1.17, 2-chloro-3-(3-cyclopropyl-phenoxy)-N-[2-(2,4-dichlorophenyl)-2-fluoro-ethyl]-6-methyl-pyridine-carboxamide] | ≥ 80% | ≥ 80% |
| O=C(NCCc1ccc(Cl)cc1Cl)c1cc(C(F)(F)F)ncc1Oc1cccc(C2CC2)c1 [Compound 1.19, 5-(3-cyclopropyl-phenoxy)-N-[2-(2,4-dichlorophenyl)ethyl]-2-(trifluoromethyl) pyridine-4-carboxamide] | ≥ 80% |  |
| N#Cc1ccccc1CCNC(=O)c1cc(Cl)ncc1Oc1cccc(C2CC2)c1 [Compound 1.23, 2-chloro-N-[2-(2-cyanophenyl)ethyl]-5-(3-cyclopropyl-phenoxy)pyridine-4-carboxamide] | ≥ 80% |  |
| O=C(NCCc1ccc(Cl)cc1)c1cc(Cl)ncc1Oc1cccc(C2CC2)c1 [Compound 1.24, 2-chloro-N-[2-(4-chlorophenyl)ethyl]-5-(3-cyclopropyl-phenoxy)pyridine-4-carboxamide] | ≥ 80% | ≥ 80% |
| COc1ccc(CCNC(=O)c2cc(Cl)ncc2Oc2cccc(C3CC3)c2)cc1OC [Compound 1.26, 2-chloro-5-(3-cyclopropyl-phenoxy)-N-[2-(3,4-dimethoxyphenyl)ethyl]pyridine-4-carboxamide] | ≥ 80% |  |
| O=C(NCCc1ccccc1)c1cc(Cl)ncc1Oc1cccc(C2CC2)c1 [Compound 1.29, 2-chloro-5-(3-cyclopropyl-phenoxy)-N-(2-phenylethyl) pyridine-4-carboxamide] | ≥ 80% |  |
| O=C(NCCc1ccc(F)cc1)c1cc(Cl)ncc1Oc1cccc(C2CC2)c1 [Compound 1.31, 2-chloro-5-(3-cyclopropyl-phenoxy)-N-[2-(4-fluorophenyl)ethyl]pyridine-4-carboxamide] | ≥ 80% |  |
| O=C(NCC(F)(F)c1ccc(F)cc1F)c1cc(Cl)ncc1Oc1cccc(C2CC2)c1 [Compound 1.32, 2-chloro-5-(3-cyclopropyl-phenoxy)-N-[2-(2,4-difluorophenyl)-2,2-difluoro-ethyl]pyridine-4-carboxamide] | ≥ 80% | ≥ 80% |
| O=C(NCCc1ccccc1Cl)c1cc(Cl)ncc1Oc1cccc(C2CC2)c1 [Compound 1.33, 2-chloro-N-[2-(2-chlorophenyl)ethyl]-5-(3-cyclopropyl-phenoxy)pyridine-4-carboxamide] | ≥ 80% |  |
| N#Cc1ccc(CCNC(=O)c2cc(Cl)ncc2Oc2cccc(C3CC3)c2)cc1 [Compound 1.34, 2-chloro-N-[2-(4-cyanophenyl)ethyl]-5-(3-cyclopropyl-phenoxy) pyridine-4-carboxamide] | ≥ 80% |  |
| Cc1cc(C(=O)NC[C@H](F)c2ccc(Cl)cc2Cl)c(Oc2cccc(C3CC3)c2)cn1 [Compound 1.42, 5-(3-cyclopropyl-phenoxy)-N-[(2R)-2-(2,4-dichlorophenyl)-2-fluoro-ethyl]-2-methyl-pyridine-4-carboxamide] | ≥ 80% | ≥ 80% |
| O=C(NCCc1ccc(Cl)cc1Cl)c1cc(Cl)ncc1Oc1ccccc1 [Compound 1.45, 2-chloro-N-[2-(2,4-dichlorophenyl)ethyl]-5-phenoxy-pyridine-4-carboxamide] |  | ≥ 80% |
| Cc1cccc(Oc2cnc(Cl)cc2C(=O)NCCc2ccc(Cl)cc2)c1 [Compound 1.47, 2-chloro-N-[2-(4-chlorophenyl)ethyl]-5-(3-methylphenoxy) pyridine-4-carboxamide] | ≥ 80% | ≥ 80% |
| Cc1ccc(CCNC(=O)c2cc(Cl)ncc2Oc2cccc(C3CC3)c2)cc1 [Compound 1.53, 2-chloro-5-(3-cyclopropyl-phenoxy)-N-[2-(p-tolyl)ethyl]pyridine-4-carboxamide] | ≥ 80% | ≥ 80% |
| Cc1cccc(Oc2cnc(Cl)cc2C(=O)NCCc2ccccc2Cl)c1 [Compound 1.54, 2-chloro-N-[2-(2-chlorophenyl)ethyl]-5-(3-methylphenoxy) pyridine-4-carboxamide] |  | ≥ 80% |

| Structure (SMILES) | inhibition of growth at 20 ppm [1] | inhibition of growth at 20 ppm [2] |
| --- | --- | --- |
| COc1ccc(CCNC(=O)c2cc(Cl)ncc2Oc2cccc(C)c2)cc1 [Compound 1.55, 2-chloro-N-[2-(4-methoxyphenyl)ethyl]-5-(3-methylphenoxy) pyridine-4-carboxamide] |  | ≥ 80% |
| Cc1ccc(CCNC(=O)c2cc(Cl)ncc2Oc2cccc(C)c2)cc1 [Compound 1.57, 2-chloro-5-(3-methylphenoxy)-N-[2-(p-tolyl)ethyl]pyridine-4-carboxamide] | ≥ 80% | ≥ 80% |
| Cc1cccc(Oc2cnc(Cl)cc2C(=O)NCC(F)c2ccc(F)cc2F)c1 (stereo not drawn) [Compound 1.59, 2-chloro-N-[2-(2,4-difluorophenyl)-2-fluoro-ethyl]-5-(3-methylphenoxy) pyridine-4-carboxamide] |  | ≥ 80% |
| O=C(NCC(F)c1ccc(Cl)cc1Cl)c1cc(Cl)ncc1Oc1ccc(F)c(F)c1 (stereo not drawn) [Compound 1.62, 2-chloro-N-[2-(2,4-dichlorophenyl)-2-fluoro-ethyl]-5-(3,4-difluorophenoxy) pyridine-4-carboxamide] |  | ≥ 80% |
| CCOc1cccc(Oc2cnc(Cl)cc2C(=O)NCC(F)c2ccc(Cl)cc2Cl)c1 (stereo not drawn) [Compound 1.65, 2-chloro-N-[2-(2,4-dichlorophenyl)-2-fluoro-ethyl]-5-(3-ethoxyphenoxy) pyridine-4-carboxamide] | ≥ 80% |  |
| CCc1cccc(Oc2cnc(Cl)cc2C(=O)NCC(F)c2ccc(Cl)cc2Cl)c1 (stereo not drawn) [Compound 1.66, 2-chloro-N-[2-(2,4-dichlorophenyl)-2-fluoro-ethyl]-5-(3-ethylphenoxy) pyridine-4-carboxamide] | ≥ 80% | ≥ 80% |
| O=C(NCC(F)c1ccc(Cl)cc1Cl)c1cc(Cl)ncc1Oc1ccccc1 (stereo not drawn) [Compound 1.67, 2-chloro-N-[2-(2,4-dichlorophenyl)-2-fluoro-ethyl]-5-phenoxy-pyridine-4-carboxamide] |  | ≥ 80% |
| O=C(NCCc1ccc(Cl)cc1Cl)c1cc(Cl)ncc1Oc1cccc(Cl)c1 [Compound 1.68, 2-chloro-5-(3-chlorophenoxy)-N-[2-(2,4-dichlorophenyl)ethyl]pyridine-4-carboxamide] | ≥ 80% | ≥ 80% |
| O=C(NCC(F)(F)c1ccccc1)c1cc(Cl)ncc1Oc1cccc(C2CC2)c1 [Compound 1.71, 2-chloro-5-(3-cyclopropyl-phenoxy)-N-(2,2-difluoro-2-phenyl-ethyl)pyridine-4-carboxamide] | ≥ 80% | ≥ 80% |
| O=C(N[C@@H]1C[C@@H]1c1ccc(F)cc1)c1cc(Cl)ncc1Oc1cccc(C2CC2)c1 [Compound 1.75, 2-chloro-5-(3-cyclopropyl-phenoxy)-N-[(1R,2R)-2-(4-fluorophenyl)cyclopropyl]pyridine-4-carboxamide] | ≥ 80% | ≥ 80% |
| Cc1ccc(C(F)(F)CNC(=O)c2cc(Cl)ncc2Oc2cccc(C3CC3)c2)c(C)c1 [Compound 1.76, 2-chloro-5-(3-cyclopropyl-phenoxy)-N-[2-(2,4-dimethylphenyl)-2,2-difluoro-ethyl]pyridine-4-carboxamide] | ≥ 80% | ≥ 80% |
| Cc1ccc(CCNC(=O)c2cc(Cl)ncc2Oc2cccc(C3CC3)c2)c(C)c1 [Compound 1.77, 2-chloro-5-(3-cyclopropyl-phenoxy)-N-[2-(2,4-dimethylphenyl)ethyl]pyridine-4-carboxamide] | ≥ 80% | ≥ 80% |
| CC(C)=Cc1ncc(Oc2cccc(C3CC3)c2)c(C(=O)NCC(F)c2ccc(Cl)cc2Cl)c1O (stereo not drawn) [Compound 1.89, 5-(3-cyclopropyl-phenoxy)-N-[2-(2,4-dichlorophenyl)-2-fluoro-ethyl]-3-hydroxy-2-(2-methylprop-1-enyl)pyridine-4-carboxamide] | ≥ 80% | ≥ 80% |
| Cc1cc(C(=O)NCC2(c3ccc(Cl)cc3Cl)CC2)c(Oc2cccc(C3CC3)c2)cn1 [Compound 1.90, 5-(3-cyclopropyl-phenoxy)-N-[[1-(2,4-dichlorophenyl)cyclopropyl]methyl]-2-methyl-pyridine-4-carboxamide] | ≥ 80% | ≥ 80% |
| Cc1cncc(Oc2cccc(C3CC3)c2)c1C(=O)NC[C@@H](F)c1ccc(Cl)cc1Cl [Compound 1.93, 3-(3-cyclopropyl-phenoxy)-N-[(2S)-2-(2,4-dichlorophenyl)-2-fluoro-ethyl]-5-methyl-pyridine-4-carboxamide] | ≥ 80% | ≥ 80% |
| N#Cc1cncc(Oc2cccc(C3CC3)c2)c1C(=O)NCC(F)c1ccc(Cl)cc1Cl (stereo not drawn) [Compound 1.97, 3-cyano-5-(3-cyclopropyl-phenoxy)-N-[2-(2,4-dichlorophenyl)-2-fluoro-ethyl]pyridine-4-carboxamide] | ≥ 80% |  |
